We go through 4 molecules from patent US9724348B2, “Crystalline forms” (VM Therapeutics LLC, priority 2013, dated 2017).

In data set [1] the test system is CCI rats. As to the kind of experiment: Chronic Constriction Injury (CCI) model of neuropathic pain in rat, von Frey paw withdrawal threshold. The data set is classed as in vivo. The text has this: Chronic Constriction Injury (CCI) Model of Neuropathic Pain in Rat. The CCI model is one of the most commonly used mono-neuropathic pain model firstly described in details by Bennett and Xie (Bennett G J, Xie Y K. Pain. 1988; 33(1):87-107). It mimics important clinical chronic pain symptoms such as mechanical allodynia and thermal hyperalgesia. Chronic constriction injury of the sciatic nerve was produced by tying four loose ligatures around the left sciatic nerve according to the method of Bennett and Xie. […] Calibrated von Frey filaments were used to determine the lowest mechanical (tactile) threshold required to evoke a brisk paw withdrawal reflex in the rat hindpaws. Rats were allowed to acclimatize in wire mesh cages for 15-20 min prior to von Frey testing. Assessment of paw withdrawal thresholds (PWTs) using von Frey filaments was undertaken prior to CCI-surgery (pre-surgery baseline on day 0). Before the drug dosing on day 14, the pre-dose baseline was recorded for each rat. […] Drug-naïve CCI-rats (n=4-6 per group) were used. The oral (PO) gavage vehicle was either 10% (w/v) Povidone K25 in water for PO dosing, or 18% (w/v) CrosPovidone in water for PO dosing, or 0.5% CMC-Na/0.1% Tween 80 in distilled water for PO dosing. The positive control gabapentin was dissolved in the vehicle and orally given at 100 mg/kg (by oral gavage). Test article was dissolved or suspended in the vehicle and orally given at 25, 50, 100 and 150 mg/kg. Each CCI-rat was administered a single oral dose of test article, gabapentin or vehicle control, 2 hours before assessment of PWT.

Data set [2] concerns rat CFA-induced inflammatory pain. As to the kind of experiment: Rat CFA-induced inflammatory pain model. The data set is classed as in vivo. As to conditions: oral dose, FIG. 15. The procedure:
Rat CFA-Induced Inflammatory Pain Model. Hyperalgesia was induced by subcutaneously injecting […] of CFA (Sigma-Aldrich, St. Louis, Mo., USA) into the plantar surface of the left hind paw of the rats using a 30-gauge hypodermic needle under sevoflurane anesthesia. The classical signs of inflammation, including edema and redness, for up the last day of tests were recorded. To assess the effect of test article on CFA-induced inflammatory pain, the rats were anesthetized with sevoflurane 3 hours after CFA injection and then orally dosed with test article (n=6) or vehicle (n=6) or positive control. Paw withdrawal latencies (thermal hyperalgesia) are measured before and at 2 and 4 hours after CFA injection. Mechanical thresholds were also measured in the same way with either the compound of current invention (n=6) or vehicle (n=6) or positive control, Naproxen (n=6) at similar different time points (for example, 1 and 3 hour). The noxious heat and mechanical thresholds were separately measured in each group of rats. The threshold was measured 3-5 times in each rat and then averaged. Stimulus interval was 5 min.

In data set [3] the test system is SNL rats. The data set is described as follows: Spinal Nerve Ligation (SNL) mono-neuropathic pain model in rat, von Frey paw withdrawal threshold. The data set is classed as in vivo. Conditions: oral gavage, dose-dependent. The procedure: Spinal Nerve Ligation (SNL) Mono-Neuropathic Pain Model in Rat. The surgical procedure will be performed according to the method firstly described by Kim and Chung (Kim S H, Chung J M. Pain. 1992; 50(3):355-63.). This procedure will result in tactile allodynia in the left hindpaw. […] The dose-response anti-allodynia effects of test compound: on day 14 after surgery, rats were treated with test article at one of four doses, vehicle or positive control by oral gavage, and PWT was determined by calibrated von Frey filaments at time points of 0 (right before the drug dosing, Pre-Dose Baseline), 0.5, 1, 2, 4 and 6 hr. The anti-allodynia effects of repeated administration of test article: Administration of test article was started on day 7 after surgery, once a day for 7 days. PWT was determined by calibrated von Frey filaments, 2 hour after test article dosing each day. After 7 days dosing, the measurement were continued, every other day without compound dosing for another 7 days. PWT was determined at the time points as given above.

Data set [4] has as its system anxiety disorders. As to conditions: human clinical studies; cited from earlier work.
The nature of data set [5]: Competitive slurries of polymorphic forms. The data set is classed as physicochemical. Conditions: competitive slurries in IPA, IPA and water, and acetone at ambient temperature and about 40° C.; all gave complete conversion to Form 2. The method, then:
The DSC of Form 2 has a single endotherm at about 160° C. Competitive slurries in IPA, IPA and water, and acetone at ambient temperature and about 40° C., all results in complete conversion to Form 2.

Data set [6] in a line: Solid form conversion on drying or during DSC. The data set is classed as physicochemical. As to conditions: drying at 80° C. or during a DSC experiment. The procedure: Also, Form 5 can be possibly isostructural with Form 2 or Form 2′, or the differences between these forms may relate to the presence or absence of a particular amount of surface water.
Form 5 may convert to a different form (Form 2′) which has a similar X-ray pattern to Form 2 on drying (80° C.), as shown in Table below and FIG. 11 (XRPD), FIG. 12 (^1H-NMR), and FIG. 13 (DSC).

Turning to `NCC1(CC(=O)O)CCCCC1` [gabapentin, reference compound], the “drowsiness, motor incoordination or other abnormality observed” value in data set [1] (CCI rats after single oral dose) is “drowsiness or motor incoordination”.

With `Cc1nc2ccccn2c(=O)c1CCN1CCC(C(=O)c2ccc(F)cc2)CC1` [Compound 10, 3-(2-{4-[(4-fluorophenyl)carbonyl]piperidin-1-yl}ethyl)-2-methyl-4H-pyrido[1,2-a]pyrimidin-4-one], in data set [2], the “analgesic effect compared with positive control Naproxen” value is “more efficacious than positive control Naproxen”. The “mechanical allodynia (paw withdrawal threshold)” value was “significantly reduced mechanical allodynia” in data set [3]; “significantly reduced mechanical allodynia” in data set [1] (CCI rats, single oral dose 25, 50, 100 and 150 mg/kg, PWT 2 hours after dosing, dose-dependent, FIG. 14). Besides, the anti-anxiety effects entry in data set [4] is reported as “did not show any dose-related anti-anxiety effects”. Moreover, the safety in human result in data set [4] is “safe in human”. Also, the “potency relative to positive control gabapentin” value in data set [1] (CCI rats, oral, gabapentin 100 mg/kg) is “more than 100 time”. For the same molecule, the “drowsiness, motor incoordination or other abnormality observed” value in data set [1] (rat, in vivo, po) is recorded as “no such effect or other abnormality was observed”.

With `Cc1nc2ccccn2c(=O)c1CCN1CCC(C(=O)c2ccc(F)cc2)CC1` [Form 2, 3-(2-{4-[(4-fluorophenyl)carbonyl]piperidin-1-yl}ethyl)-2-methyl-4H-pyrido[1,2-a]pyrimidin-4-one], the “thermodynamic stability of crystalline form” value in data set [5] is recorded as “most thermodynamically stable form”.

Take `Cc1nc2ccccn2c(=O)c1CCN1CCC(C(=O)c2ccc(F)cc2)CC1` [Form 5, 3-(2-{4-[(4-fluorophenyl)carbonyl]piperidin-1-yl}ethyl)-2-methyl-4H-pyrido[1,2-a]pyrimidin-4-one]: the “solid form stability on drying” value in data set [6] is given as “can convert to a Form 2′ on drying”.
